Consider 12 compounds from US12617783B2, “Heterocyclic GLP-1R agonists” (BIOMEA FUSION, INC., priority 2024, dated 2026).

The target in the test is T1, human GLP-1R (Homo sapiens, UniProt P43220).
T1 construct: host or cells: HEK293
T1 sequence (P43220 24-463): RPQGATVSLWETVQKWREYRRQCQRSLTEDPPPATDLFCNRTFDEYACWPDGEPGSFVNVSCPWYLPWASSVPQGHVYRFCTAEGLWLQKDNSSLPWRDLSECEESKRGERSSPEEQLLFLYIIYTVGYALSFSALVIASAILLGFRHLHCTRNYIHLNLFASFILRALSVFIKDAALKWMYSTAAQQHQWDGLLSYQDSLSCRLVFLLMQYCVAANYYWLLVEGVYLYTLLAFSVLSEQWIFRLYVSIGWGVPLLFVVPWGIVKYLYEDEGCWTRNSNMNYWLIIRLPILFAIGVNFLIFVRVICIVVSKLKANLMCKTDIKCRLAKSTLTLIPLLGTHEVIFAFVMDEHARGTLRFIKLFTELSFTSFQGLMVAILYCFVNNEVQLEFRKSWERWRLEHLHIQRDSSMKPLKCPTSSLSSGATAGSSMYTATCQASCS
Briefly: GLP-1R cAMP assay (Example B1b, HTRF, 30 min at 37°). Format: cell-based. The settings on record: cAMP accumulation in HEK293 expressing human GLP-1R, no BETP, 30 min at 37° (Method B1b), Table 1. As for the experimental part: Assay was carried out with HEK293 expressing human GLP-1R using HTRF assay, developed by Wuxi Apptec. The method is a competitive assay between native cAMP produced by the cells and exogenous cAMP labeled with a proprietary dye d2. The tracer binding is visualized by a mAb anti-cAMP labeled with Cryptate. The signal (i.e. energy transfer) is inversely proportional to the concentration of CAMP in either standard or experimental sample. Compounds were tested in the absence of BETP. Ten microliter of cell suspension in assay buffer (5 mM HEPES, 500 μM IBMX, 0.1% BSA) were added to each well (1,000 cells per well) in a low volume 384-well plate for the assay. Serially diluted compounds were added in 100 nL volume to duplicate wells, by Labcyte Echo. GLP-1 (7-37) was used as positive control. Assay plate was incubated for 30 minutes at 37°. Stock of cAMP Detection Solution was prepared by mixing 38 parts of cAMP lysis buffer, 1 part of cAMP-D2, 1 part of anti-cAMP cryptate reagent (Cisbio #62AM4PEJ). Ten microliter of the cAMP Detection Solution was added to each well, and the assay plate was incubated for 1 hour at room temperature in the dark. Plates were read on Envision plate reader. The data were analyzed by ScreenUltra in Dotmatics, with % activation expressed using following formula: (Signal ratio […]*10000−negative control)/(postive control−negative control)*100. Dose response curves were plotted and EC50 values calculated by non-linear regression using 4-parameter fit. The potency (EC50) values for cAMP accumulation in HEK293 cells are reported in the Table 1 below (for compounds ID 610-708).
A general note: Cyclic AMP is a second messenger, typically raised through Gs and lowered through Gi signalling.
On to `Cc1cc(-c2nn3c(c2-n2ccn(-c4ccc5c(cnn5C)c4F)c2=O)[C@H](C)N(C(=O)c2cc4cc([C@H]5CCOC(C)(C)C5)ccc4n2[C@@]2(c4noc(=O)[nH]4)C[C@@H]2C)CCC3)cc(C)c1F` [Compound 703, 3-((1S,2S)-1-(5-((S)-2,2-dimethyltetrahydro-2H-pyran-4-yl)-2-((S)-3-(3-(4-fluoro-1-methyl-1H-indazol-5-yl)-2-oxo-2,3-dihydro-1H-imidazol-1-yl)-2-(4-fluoro-3,5-dimethylphenyl)-4-methyl-5,6,7,8-tetrahydro-4H-pyrazolo[1,5-a][1,4]diazepine-5-carbonyl)-1H-indol-1-yl)-2-methylcyclopropyl)-1,2,4-oxadiazol-5 (4H)-one], for which the EC50 (in general, the concentration at which the effect is half-maximal) came to 0.0024 µM. `Cc1cc(-n2nc3c(c2-n2ccn(-c4ccc5c(cnn5C)c4F)c2=O)[C@@H]2CC[C@H](C3)N2C(=O)c2cc3cc([C@H]4CCOC(C)(C)C4)ccc3n2[C@@]2(c3noc(=O)n3C)C[C@@H]2C)cc(C)c1F` [Compound 613, 3-[(1S,2S)-1-[5-[(4S)-2,2-dimethyltetrahydropyran-4-yl]-2-[(1S,8R)-4-(4-fluoro-3,5-dimethyl-phenyl)-3-[3-(4-fluoro-1-methyl-indazol-5-yl)-2-oxo-imidazol-1-yl]-4,5,11-triazatricyclo[6.2.1.02,6]undeca-2,5-diene-11-carbonyl]indol-1-yl]-2-methyl-cyclopropyl]-4-methyl-1,2,4-oxadiazol-5-one] gave an EC50 of 0.0505 µM. In the case of `Cc1cc(-n2nc3c(c2-n2ccn(-c4ccc5ccncc5c4F)c2=O)[C@@H]2CCC[C@H](C3)N2C(=O)c2cc3cc([C@H]4CCOC5(CC5)C4)ccc3n2[C@@]2(c3noc(=O)[nH]3)C[C@@H]2C)cc(C)c1F` [Compound 610, 3-((1S,2S)-1-(2-((4S,8R)-2-(4-fluoro-3,5-dimethylphenyl)-3-(3-(8-fluoroisoquinolin-7-yl)-2-oxo-2,3-dihydro-1H-imidazol-1-yl)-4,5,6,7,8,9-hexahydro-2H-4,8-epiminocycloocta [c]pyrazole-10-carbonyl)-5-((S)-4-oxaspiro[2.5]octan-7-yl)-1H-indol-1-yl)-2-methylcyclopropyl)-1,2,4-oxadiazol-5 (4H)-one] it was 0.0008 µM; in that of `Cc1cc(-n2nc3c(c2-n2ccn(-c4ccc5c(cnn5C5CC5)c4F)c2=O)[C@@H]2COC[C@H](C3)N2C(=O)c2cc3cc(C4CCOCC4)ccc3n2[C@@]2(c3noc(=O)[nH]3)C[C@@H]2C)cc(C)c1F` [Compound 715, 3-((1S,2S)-1-(2-((4R,8S)-3-(3-(1-cyclopropyl-4-fluoro-1H-indazol-5-yl)-2-oxo-2,3-dihydro-1H-imidazol-1-yl)-2-(4-fluoro-3,5-dimethylphenyl)-2,4,5,7,8,9-hexahydro-4,8-epiminooxocino [5,4-c]pyrazole-10-carbonyl)-5-(tetrahydro-2H-pyran-4-yl)-1H-indol-1-yl)-2-methylcyclopropyl)-1,2,4-oxadiazol-5 (4H)-one], 0.004 µM. In the case of `Cc1cc(-n2nc3c(c2-n2ccn(-c4ccc(N(C)C(=O)C5CC5)c(Cl)c4)c2=O)[C@@H]2CCC[C@H](C3)N2C(=O)c2cc3cc([C@H]4CCOC(C)(C)C4)ccc3n2[C@@]2(c3noc(=O)[nH]3)C[C@@H]2C)cc(C)c1F` [Compound 612, N-(2-chloro-4-(3-((4S,8R)-10-(5-((S)-2,2-dimethyltetrahydro-2H-pyran-4-yl)-1-((1S,2S)-2-methyl-1-(5-oxo-4,5-dihydro-1,2,4-oxadiazol-3-yl)cyclopropyl)-1H-indole-2-carbonyl)-2-(4-fluoro-3,5-dimethylphenyl)-4,5,6,7,8,9-hexahydro-2H-4,8-epiminocycloocta [c]pyrazol-3-yl)-2-oxo-2,3-dihydro-1H-imidazol-1-yl)phenyl)-N-methylcyclopropanecarboxamide] it was 0.0019 µM; in that of `Cc1cc(-n2nc3c(c2-n2ccn(-c4ccc5c(cnn5C)c4F)c2=O)[C@@H]2CC[C@H](C3)N2C(=O)c2c(F)c3cc(C4CCOC(C)(C)C4)ccc3n2[C@@]2(c3noc(=O)[nH]3)C[C@@H]2C)cc(C)c1F` (stereo partly drawn) [Compound 708, 3-[(1S,2S)-1-[5-(2,2-dimethyltetrahydropyran-4-yl)-3-fluoro-2-[(1S,8R)-4-(4-fluoro-3,5-dimethyl-phenyl)-3-[3-(4-fluoro-1-methyl-indazol-5-yl)-2-oxo-imidazol-1-yl]-4,5,11-triazatricyclo[6.2.1.02,6]undeca-2,5-diene-11-carbonyl]indol-1-yl]-2-methyl-cyclopropyl]-4H-1,2,4-oxadiazol-5-one], 0.0085 µM.

`Cc1cc(-n2nc3c(c2-n2ccn(-c4ccc5c(cnn5C)c4F)c2=O)[C@@H]2COC[C@H](C3)N2C(=O)c2cc3cc([C@H]4CCOC(C)(C)C4)cc(F)c3n2[C@@]2(c3noc(=O)[nH]3)C[C@@H]2C)cc(C)c1F` [Compound 705, 3-((1S,2S)-1-(5-((S)-2,2-dimethyltetrahydro-2H-pyran-4-yl)-7-fluoro-2-((4R,8S)-3-(3-(4-fluoro-1-methyl-1H-indazol-5-yl)-2-oxo-2,3-dihydro-1H-imidazol-1-yl)-2-(4-fluoro-3,5-dimethylphenyl)-2,4,5,7,8,9-hexahydro-4,8-epiminooxocino [5,4-c]pyrazole-10-carbonyl)-1H-indol-1-yl)-2-methylcyclopropyl)-1,2,4-oxadiazol-5(4H)-one] gave a 50% effective concentration (EC50) of 0.0024 µM.

`Cc1cc(-n2nc3c(c2-n2ccn(-c4ccc5c(cnn5C5CC5)c4F)c2=O)[C@@H]2COC[C@H](C3)N2C(=O)c2cc3cc([C@H]4CCOC(C)(C)C4)ccc3n2[C@@]2(c3noc(=O)[nH]3)C[C@@H]2C)cc(C)c1F` [Compound 617, 3-((1S,2S)-1-(2-((4R,8S)-3-(3-(1-cyclopropyl-4-fluoro-1H-indazol-5-yl)-2-oxo-2,3-dihydro-1H-imidazol-1-yl)-2-(4-fluoro-3,5-dimethylphenyl)-2,4,5,7,8,9-hexahydro-4,8-epiminooxocino [5,4-c]pyrazole-10-carbonyl)-5-((S)-2,2-dimethyltetrahydro-2H-pyran-4-yl)-1H-indol-1-yl)-2-methylcyclopropyl)-1,2,4-oxadiazol-5 (4H)-one] registered a concentration for a half-maximal effect (EC50) of 0.0025 µM. In the case of `Cc1cc(-n2nc3c(c2-n2ccn(-c4ccc5c(cnn5C)c4F)c2=O)[C@@H]2CC[C@H](C3)N2C(=O)c2cc3cc(C4CCOC(C)(C)C4)cc(F)c3n2[C@@]2(c3noc(=O)[nH]3)C[C@@H]2C)cc(C)c1F` (stereo partly drawn) [Compound 618, 3-[(1S,2S)-1-[5-(2,2-dimethyltetrahydropyran-4-yl)-7-fluoro-2-[(1S,8R)-4-(4-fluoro-3,5-dimethyl-phenyl)-3-[3-(4-fluoro-1-methyl-indazol-5-yl)-2-oxo-imidazol-1-yl]-4,5,11-triazatricyclo[6.2.1.02,6]undeca-2,5-diene-11-carbonyl]indol-1-yl]-2-methyl-cyclopropyl]-4H-1,2,4-oxadiazol-5-one] it was 0.0296 µM; in that of `Cc1cc(-n2nc3c(c2-n2ccn(-c4ccc5c(cnn5C)c4F)c2=O)[C@@H]2COC[C@H](C3)N2C(=O)c2cc3cc([C@@H]4CCOC(C)(C)C4)cc(F)c3n2[C@@]2(c3noc(=O)[nH]3)C[C@@H]2C)cc(C)c1F` [Compound 706, 3-((1S,2S)-1-(5-((R)-2,2-dimethyltetrahydro-2H-pyran-4-yl)-7-fluoro-2-((4R,8S)-3-(3-(4-fluoro-1-methyl-1H-indazol-5-yl)-2-oxo-2,3-dihydro-1H-imidazol-1-yl)-2-(4-fluoro-3,5-dimethylphenyl)-2,4,5,7,8,9-hexahydro-4,8-epiminooxocino [5,4-c]pyrazole-10-carbonyl)-1H-indol-1-yl)-2-methylcyclopropyl)-1,2,4-oxadiazol-5 (4H)-one], 0.059 µM; in that of `Cc1cc(-c2nn3c(c2-n2ccn(-c4ccc5c(cnn5C)c4F)c2=O)[C@@H](C)N(C(=O)c2cc4cc([C@H]5CCOC(C)(C)C5)ccc4n2[C@@]2(c4noc(=O)[nH]4)C[C@@H]2C)CCC3)cc(C)c1F` [Compound 702, 3-((1S,2S)-1-(5-((S)-2,2-dimethyltetrahydro-2H-pyran-4-yl)-2-((R)-3-(3-(4-fluoro-1-methyl-1H-indazol-5-yl)-2-oxo-2,3-dihydro-1H-imidazol-1-yl)-2-(4-fluoro-3,5-dimethylphenyl)-4-methyl-5,6,7,8-tetrahydro-4H-pyrazolo[1,5-a][1,4]diazepine-5-carbonyl)-1H-indol-1-yl)-2-methylcyclopropyl)-1,2,4-oxadiazol-5 (4H)-one], more than 0.1 µM. In the case of `Cc1cc(-n2nc3c(c2-n2ccn(-c4ccc5c(cnn5C)c4F)c2=O)[C@@H]2CC[C@H](C3)N2C(=O)c2c(F)c3cc(C4CCOC(C)(C)C4)ccc3n2[C@@]2(c3noc(=O)[nH]3)C[C@@H]2C)cc(C)c1F` (stereo in doubt) [Compound 712, 3-[(1S,2S)-1-[5-[(4S)-2,2-dimethyltetrahydropyran-4-yl]-3-fluoro-2-[(1S,8R)-4-(4-fluoro-3,5-dimethyl-phenyl)-3-[3-(4-fluoro-1-methyl-indazol-5-yl)-2-oxo-imidazol-1-yl]-4,5,11-triazatricyclo[6.2.1.02,6]undeca-2,5-diene-11-carbonyl]indol-1-yl]-2-methyl-cyclopropyl]-4H-1,2,4-oxadiazol-5-one] it was 0.112 µM.
